The structures appear in SMILES notation. Read-outs that look alike come from different tables or passages of the source.

The source of these data is patent US11111251B2, “Positive allosteric modulators of the muscarinic acetylcholine receptor M1” (Vanderbilt University, priority 2016, dated 2021).

The target in this assay is T1, human mAChR M1 (Homo sapiens, UniProt P11229).
T1 sequence (P11229 1-460): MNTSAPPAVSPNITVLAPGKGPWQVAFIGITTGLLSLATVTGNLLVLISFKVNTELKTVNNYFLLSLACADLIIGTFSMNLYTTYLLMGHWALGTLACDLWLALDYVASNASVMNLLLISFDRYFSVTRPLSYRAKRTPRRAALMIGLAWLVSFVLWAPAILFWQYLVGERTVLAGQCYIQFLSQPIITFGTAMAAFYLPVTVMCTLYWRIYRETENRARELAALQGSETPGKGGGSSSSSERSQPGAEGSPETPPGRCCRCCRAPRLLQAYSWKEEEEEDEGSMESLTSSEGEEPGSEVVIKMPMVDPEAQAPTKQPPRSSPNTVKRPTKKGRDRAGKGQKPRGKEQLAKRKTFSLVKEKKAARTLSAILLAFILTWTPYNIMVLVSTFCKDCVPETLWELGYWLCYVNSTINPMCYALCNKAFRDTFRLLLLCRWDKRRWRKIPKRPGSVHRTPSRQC
Briefly: mAChR M1 cell-based functional assay: calcium mobilization, positive allosteric modulator mode (increase in EC20 acetylcholine response). As to conditions: for Emax: read-out: Human M1 Emax (%). In outline: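 Calcium-flux assay in CHO-K1 cells stably expressing human M1, loaded with Fluo-4 AM (50 min, 37 °C) and read at 1 Hz. Compound (11-point, 1:3 series) was added at 4 s, EC20 acetylcholine at 144 s and EC80 at 230 s. PAM activity is the concentration-dependent rise in the EC20 response, fitted with a four-parameter logistic.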
Background: Calcium flux is commonly read through the fluorescence of an indicator in the cells.

The mark [1] stands for this setting: Table 2, human M1, read-out: Human M1 EC50.

For the molecule `Cn1cc(-c2ccc(Cc3cc(C(=O)NCC4CCCCO4)nc4ccsc34)cn2)cn1` (stereo not shown) [Compound 340, 7-[[6-(1-methylpyrazol-4-yl)-3-pyridyl]methyl]-N-(tetrahydropyran-2-ylmethyl)thieno[3,2-b]pyridine-5-carboxamide], the EC50 under setting [1] is 225 nM. Also, the Emax (Table 2, human M1) worked out at 88.3%.

With `Cc1ccc(Cc2cc(C(=O)NC3CCCCC3)nc3c(C)csc23)cn1` [Compound 101, N-cyclohexyl-3-methyl-7-[(6-methyl-3-pyridyl)methyl]thieno[3,2-b]pyridine-5-carboxamide], the EC50 under setting [1] is 4960 nM. The maximal effect (Emax) (Table 2, human M1) is 75.7%.

For `Cc1ccc(Cc2cc(C(=O)Nc3n[nH]c4ccccc34)nc3ccsc23)cn1` [Compound 65, N-(1H-indazol-3-yl)-7-[(6-methyl-3-pyridyl)methyl]thieno[3,2-b]pyridine-5-carboxamide], the EC50 under setting [1] came to 1720 nM. Besides, the Emax (Table 2, human M1) is 37.3%.

As to `Cc1csc2c(Cc3ccc(-n4cccn4)cc3)cc(C(=O)NC3CCCCNC3=O)nc12` (stereo not shown) [Compound 123, 3-methyl-N-(2-oxoazepan-3-yl)-7-[(4-pyrazol-1-ylphenyl)methyl]thieno[3,2-b]pyridine-5-carboxamide], the EC50 under setting [1] worked out at 435 nM. For the same molecule, under “Table 2, human M1”, the Emax amounted to 28.8%.

As for `O=C(NC1CC(F)C1)c1cc(Cc2ccc(-n3cccn3)cc2)c2sccc2n1` (stereo not shown) [Compound 280, N-(3-fluorocyclobutyl)-7-[(4-pyrazol-1-ylphenyl)methyl]thieno[3,2-b]pyridine-5-carboxamide], the EC50 under setting [1] is 297 nM. Besides, the Emax (Table 2, human M1) is 71.8%.

As for `COCCCNC(=O)c1cc(Cc2ccc(-c3cncs3)cc2)c2sccc2n1` [Compound 404, N-(3-methoxypropyl)-7-[(4-thiazol-5-ylphenyl)methyl]thieno[3,2-b]pyridine-5-carboxamide], the EC50 under setting [1] was found to be 3570 nM. Also, the Emax (Table 2, human M1) was 56.7%.

In the case of `Cc1ccc(Cc2cc(C(=O)N[C@H]3CCOC3)nc3ccsc23)cn1` [Compound 263, 7-[(6-methyl-3-pyridyl)methyl]-N-[(35)-tetrahydrofuran-3-yl]thieno[3,2-b]pyridine-5-carboxamide], the EC50 under setting [1] was above 10000 nM. For the same molecule, under “Table 2, human M1”, the Emax turned out to be 29.3%.

For `Cn1ccc2nc(C(=O)NC3CCOCC3)cc(Cc3ccc(-c4nccs4)cc3)c21` [Compound 480, 1-methyl-N-tetrahydropyran-4-yl-7-[(4-thiazol-2-ylphenyl)methyl]pyrrolo[3,2-b]pyridine-5-carboxamide], under setting [1], the 50% effective concentration (EC50) came to 360 nM. For the same molecule, under “Table 2, human M1”, the Emax is 57.2%.

With `O=C(N[C@H]1CCC[C@@H]1O)c1cc(Cc2ccc(-c3cncs3)cc2)c2sccc2n1` [Compound 397, N-[(1S,2S)-2-hydroxycyclopentyl]-7-[(4-thiazol-5-ylphenyl)methyl]thieno[3,2-b]pyridine-5-carboxamide], the EC50 under setting [1] came out at 111 nM. Moreover, for the setting “Table 2, human M1”, the Emax was 59.6%.

Regarding `Cn1ccc(-c2ccc(Cc3cc(C(=O)N[C@H]4CCCC[C@@H]4O)nc4ccsc34)cc2)n1` [Compound 256, N-[(1S,2S)-2-hydroxycyclohexyl]-7-[[4-(1-methylpyrazol-3-yl)phenyl]methyl]thieno[3,2-b]pyridine-5-carboxamide], the EC50 under setting [1] was 57.6 nM. Further, where the note is “Table 2, human M1”, the Emax came out at 50%.

On to `Cc1ccc([C@@H](F)c2cc(C(=O)N[C@H]3CCCC[C@@H]3O)nc3ccsc23)cn1` [Compound 234], for which the EC50 under setting [1] was 1370 nM. The Emax (Table 2, human M1) amounted to 64.6%.

Take `Cn1ccc(-c2ccc(Cc3cc(C(=O)N[C@H]4CCOC[C@@H]4O)nc4ccsc34)cn2)n1` [Compound 353, N-[(3R,4S)-3-hydroxytetrahydropyran-4-yl]-7-[[6-(1-methylpyrazol-3-yl)-3-pyridyl]methyl]thieno[3,2-b]pyridine-5-carboxamide]: the EC50 under setting [1] was 5.05 nM. Also, the maximal response (Emax) (Table 2, human M1) worked out at 62.1%.

Regarding `O=C(NC1CCCCC1)c1cc(Cc2ccc(-n3cccn3)cc2)c2sccc2n1` [Compound 72, N-cyclohexyl-7-[(4-pyrazol-1-ylphenyl)methyl]thieno[3,2-b]pyridine-5-carboxamide], the EC50 under setting [1] is above 10000 nM. Where the note is “Table 2, human M1”, the Emax is 84.5%.

For `Cc1csc2c(Cc3ccc(-n4cccn4)cc3)cc(C(=O)N(C)C3CCOCC3)nc12` [Compound 121, N,3-dimethyl-7-[(4-pyrazol-1-ylphenyl)methyl]-N-tetrahydropyran-4-yl-thieno[3,2-b]pyridine-5-carboxamide], under setting [1], the EC50 was 6760 nM. The Emax (Table 2, human M1) stood at 54.9%.

For `O=C(N[C@@H]1CC[C@H]1O)c1cc(Cc2ccc(-c3cscn3)cc2)c2sccc2n1` [Compound 200, N-[(1R,2R)-2-hydroxycyclobutyl]-7-[(4-thiazol-4-ylphenyl)methyl]thieno[3,2-b]pyridine-5-carboxamide], under setting [1], the EC50 was 116 nM. Also, under “Table 2, human M1”, the Emax worked out at 89.4%.

For `O=C(NCC1CCN1)c1cc(Cc2ccc(-n3cccn3)cc2)c2sccc2n1` (stereo not shown) [Compound 292, N-(azetidin-2-ylmethyl)-7-[(4-pyrazol-1-ylphenyl)methyl]thieno[3,2-b]pyridine-5-carboxamide], the EC50 under setting [1] is 225 nM. In addition, the Emax (Table 2, human M1) was determined as 81.8%.

Turning to `C[C@@H]1CC(NC(=O)c2cc(Cc3ccc(-c4cscn4)cc3)c3c(ccn3C)n2)C[C@H](C)O1` (stereo partly drawn) [Compound 460, N-[(2S,6R)-2,6-dimethyltetrahydropyran-4-yl]-1-methyl-7-[(4-thiazol-4-ylphenyl)methyl]pyrrolo[3,2-b]pyridine-5-carboxamide], the EC50 under setting [1] came to 379 nM. In addition, under “Table 2, human M1”, the Emax stood at 70.3%.

For the molecule `Cc1ncc(Cc2cc(C(=O)N[C@@H]3CCOC[C@H]3O)nc3ccsc23)s1` [Compound 137, N-[(3S,4R)-3-hydroxytetrahydropyran-4-yl]-7-[(2-methylthiazol-5-yl)methyl]thieno[3,2-b]pyridine-5-carboxamide], under setting [1], the EC50 was 548 nM. In addition, for the setting “Table 2, human M1”, the Emax came to 80.3%.

As for `Cn1ccc2nc(C(=O)N[C@H]3CCCC[C@@H]3O)cc(Cc3ccc(-n4cccn4)cc3)c21` [Compound 454, N-[(1S,2S)-2-hydroxycyclohexyl]-1-methyl-7-[(4-pyrazol-1-ylphenyl)methyl]pyrrolo[3,2-b]pyridine-5-carboxamide], the EC50 under setting [1] stood at 13.9 nM. For the setting “Table 2, human M1”, the Emax came to 69.3%.

Take `Cc1ncc(Cc2cc(C(=O)NC3CCCCNC3=O)nc3ccsc23)s1` (stereo not shown) [Compound 144, 7-[(2-methylthiazol-5-yl)methyl]-N-(2-oxoazepan-3-yl)thieno[3,2-b]pyridine-5-carboxamide]: the EC50 under setting [1] was above 10000 nM. In addition, the Emax (Table 2, human M1) came out at 50.7%.

As for `Cn1ccc(-c2ccc(Cc3cc(C(=O)NC4CC(F)C4)nc4ccsc34)cn2)n1` (stereo not shown) [Compound 419, N-(3-fluorocyclobutyl)-7-[[6-(1-methylpyrazol-3-yl)-3-pyridyl]methyl]thieno[3,2-b]pyridine-5-carboxamide], the EC50 under setting [1] amounted to 760 nM. Besides, the Emax (Table 2, human M1) stood at 70.1%.

Take `O=C(NC1CC(F)C1)c1cc(Cc2ccc(-c3nccs3)cc2)c2sccc2n1` (stereo not shown) [Compound 367, N-(3-fluorocyclobutyl)-7-[(4-thiazol-2-ylphenyl)methyl]thieno[3,2-b]pyridine-5-carboxamide]: under setting [1], the EC50 is above 10000 nM. Under “Table 2, human M1”, the Emax turned out to be 71.9%.

`CC1COCCC1NC(=O)c1cc(Cc2ccc(-c3nccs3)cc2)c2sccc2n1` (stereo not shown) [Compound 370, N-(3-methyltetrahydropyran-4-yl)-7-[(4-thiazol-2-ylphenyl)methyl]thieno[3,2-b]pyridine-5-carboxamide]: the EC50 under setting [1] turned out to be 400 nM. Besides, under “Table 2, human M1”, the Emax stood at 77.7%.

As to `Cn1ccc(-c2ccc(Cc3cc(C(=O)NCC4CCO4)nc4ccsc34)cn2)n1` (stereo not shown) [Compound 355, 7-[[6-(1-methylpyrazol-3-yl)-3-pyridyl]methyl]-N-(oxetan-2-ylmethyl)thieno[3,2-b]pyridine-5-carboxamide], the EC50 under setting [1] turned out to be 355 nM. Further, the Emax (Table 2, human M1) was found to be 86.6%.

With `O=C(N[C@H]1CCCC[C@@H]1O)c1cc(Cc2ccc(-c3cscn3)cc2)c2sccc2n1` [Compound 217, N-[(1S,2S)-2-hydroxycyclohexyl]-7-[(4-thiazol-4-ylphenyl)methyl]thieno[3,2-b]pyridine-5-carboxamide], under setting [1], the EC50 was determined as 45.4 nM. The Emax (Table 2, human M1) worked out at 74.8%.

Regarding `Cc1ccc(Oc2cc(C(=O)NCC3CCCO3)nc3ccsc23)cn1` (stereo not shown) [Compound 35, 7-[(6-methyl-3-pyridyl)oxy]-N-(tetrahydrofuran-2-ylmethyl)thieno[3,2-b]pyridine-5-carboxamide], the EC50 (Table 1, mAChR M1 cell-based functional assay, PAM mode, species not given, read-out: EC50) is above 10000 nM.

With `Cc1csc2c(Cc3ccc(-n4cccn4)cc3)cc(C(=O)NCC3CCO3)nc12` (stereo not shown) [Compound 324, 3-methyl-N-(oxetan-2-ylmethyl)-7-[(4-pyrazol-1-ylphenyl)methyl]thieno[3,2-b]pyridine-5-carboxamide], the EC50 under setting [1] turned out to be 1050 nM. The Emax (Table 2, human M1) was found to be 78.9%.

As for `Cc1nc(-c2ccc(Cc3cc(C(=O)N4CCC(C)(O)CC4)nc4ccsc34)cc2)co1` [Compound 174, (4-hydroxy-4-methyl-1-piperidyl)-[7-[[4-(2-methyloxazol-4-yl)phenyl]methyl]thieno[3,2-b]pyridin-5-yl]methanone], the EC50 under setting [1] was above 10000 nM. The Emax (Table 2, human M1) was 45.1%.

By EC50 is commonly meant the concentration needed to bring the measured effect to its halfway point. The Emax is the greatest response seen or fitted, relative to the assay's reference.
